From US10611751B2, “Dopamine D1 receptor positive allosteric modulators” (Eli Lilly and Company, priority 2018, dated 2020)
“Also recorded” adds a separate entry of the source. Read-outs that look alike come from different tables or passages of the source. Marks after values point to notes of the source that are not given here.

Key:
human D1 receptor = human D1 receptor (Homo sapiens (Human), UniProt P21728); assay: Human D1 Receptor PAM Assay (cAMP HTRF, potentiator mode with EC20 dopamine); type: cell-based; details: for EC50: HEK293 cells expressing human D1 receptor, 12 nM dopamine (EC20), cAMP, read-out: Abs EC50; for Emax: fitted top of curve, 0% = EC20 dopamine, 100% = 5 μM dopamine, read-out: % Top (% Potentiation)
From the text: The PAM activity of the compounds of the present invention may be measured essentially as described in Svensson et al., An Allosteric Potentiator of the Dopamine D1 Receptor Increases Locomotor Activity in Human D1 Knock-in Mices without Casusing Stereotypy or Tachyphylaxis. J. Pharmacol. Exp. Ther. (2017) 360:117-128.
More specifically, HEK293 cells that stably express the human D1 receptor (Accession number NM_000794) are generated by gene transduction using the pBABE-bleo retroviral vector and selected with Zeocin™ (InvivoGen). At approximately 80% confluency, the cells are harvested using TrypLE™ Express (Gibco), suspended in FBS plus 8% DMSO, and stored in liquid nitrogen. On the day of the assay, cells are thawed and resuspended in STIM buffer (Hanks Balanced Salt Solution supplemented with 0.1% BSA, 20 mM HEPES, 500 μM IBMX, and 100 μM ascorbic acid).
Test compound is serially diluted (1:2) with DMSO into assay plates (ProxiPlate-384 Plus, PerkinElmer) using acoustic dispensing (Labcyte) to provide 20 concentrations for full response curves. […] Plates are incubated at room temperature for a total reaction time of 60 min.
cAMP production is quantified using HTRF® detection (Cisbio) according to the manufacturer's instructions. Generally, lysis buffer containing anti-cAMP cryptate (5 μL) and D2-conjugate (from HTRF® kit) (5 μL) is added to the wells, plates are incubated for an additional 60-90 min, and the time-resolved fluorescence is detected using an EnVision™ plate reader (PerkinElmer). Fluorescence data is converted to cAMP concentrations using a cAMP standard curve and analyzing using a 4-parameter non-linear logistic equation (Genedata Screener, version 13.0.5-standard). For potentiator mode concentration-response curves, results are expressed as percent of the window between a response at EC20 concentration of dopamine alone (normalized to 0%) and the maximum response to dopamine (defined by response to 5 μM dopamine, final concentration, normalized as 100%).
Absolute EC50 values are calculated based on the maximum and minimum responses of the control agonist (dopamine). The % Potentiation (% Top) is determined from the fitted top of the concentration response curve.

[1] = Fraction unbound in plasma and brain, determined in vitro (equilibrium dialysis); type: in vitro ADME
Method: Example 1 is orally dosed to male mouse from 1 mg/kg to 30 mg/kg in fed condition, and the plasma and brain concentration are determined 1.5 hr post-dose. The fraction unbound of the compound is determined in vitro as described previously (Zamek-Gliszczynski M J, Ruterbories K J, Ajamie R T, Wickremsinhe E R, Pothuri L, Rao M V, Basavanakatti V N, Pinjari J, Ramanathan V K, Chaudhary A K (2011) Validation of 96-well equilibrium dialysis with non-radiolabeled drug for definitive measurement of protein binding and application to clinical development of highly-bound drugs. J Pharm Sci 100: 2498-2507). The ratio (Kpuu) of unbound brain concentration (Cu,brain) vs. unbound plasma concertation (Cu,plasma) is determined as described previously (Raub T J, Wishart G N, Kulanthaivel P, Staton B A, Ajamie R T, Sawada G A, Gelbert L M, Shannon H E, Sanchez-Martinez C, De Dios A (2015) Brain Exposure of Two Selective Dual CDK4 and CDK6 Inhibitors and the Antitumor Activity of CDK4 and CDK6 Inhibition in Combination with Temozolomide in an Intracranial Glioblastoma Xenograft. Drug Metab Dispos. 43:1360-71). The data presented below for Example 1 are averages from 3 animals at each dose. “Con.” refers to concentration.
Example 8 was orally dosed to male mouse from 3 mg/kg to 60 mg/kg in fed condition, and the plasma and brain concentration was determined 1 hr post-dose. The fraction unbound of the compound was determined in vitro as described previously (Zamek-Gliszczynski M J, et al., Validation of 96-well equilibrium dialysis with non-radiolabeled drug for definitive measurement of protein binding and application to clinical development of highly-bound drugs, J. Pharm. Sci. (2011) 100: 2498-2507). The ratio (Kpuu) of unbound brain concentration (Cu,brain) vs. unbound plasma concertation (Cu,plasma) was determined as described previously (Raub T J, et al., Brain Exposure of Two Selective Dual CDK4 and CDK6 Inhibitors and the Antitumor Activity of CDK4 and CDK6 Inhibition in Combination with Temozolomide in an Intracranial Glioblastoma Xenograft. Drug Metab. Dispos. (2015) 43:1360-71). The data presented below for Example 8 are averages from 3 animals at each dose.

[2] = tested on: human D1 receptor knock-in mice; assay: Basal (Habituated) Locomotor Activity; type: in vivo, mouse; details: for Basal Locomotor Activity (Total Ambulations for 60 min), mean: male human D1 knock-in mice, N = 8/group; for Effect on basal movement / locomotor activation (in words): oral dose response, habituated human D1 knock-in mice
Method: Locomotor activity is measured using an automated system to track movement in mice. Monitoring of mouse locomotor activity behaviors take place in transparent plastic shoebox cages having dimensions of 45×25×20 cm, with a 1 cm depth of wood chips for absorbent bedding, and covered with a ventilated filtered plastic cage top. Cages were placed in a rectangular frame containing a grid of 12 photocell beams in an 8×4 configuration (Kinder Scientific, Poway, Calif.) that is positioned 2.5 centimeters from the floor of the cage for the detection of body movements (ambulations) and recorded by computer.
Male human D1 receptor knock-in mice are placed in chambers and allowed to habituate to the chambers for 60 min. During the habituation period, the mice show decreasing locomotion over time, as expected. Following administration of a compound of the invention, animal movement is found to increase in a dose-dependent fashion.
The mice are randomly assigned to treatment groups. In the dose response study, each mouse is placed individually into one of the locomotor activity boxes for a 60 min. habituation period. The mice are then dosed orally using test compound in a 20% hydroxypropyl-betacyclodextrin vehicle and using a 10 mL/kg dose volume. After dosing, the mice are placed back into the LMA boxes and the total number of ambulations is recorded per 10 min interval for each mouse over a 60 min measurement period. Statistical analysis is carried out using one-way ANOVA followed by post-hoc analysis using Dunnett's Comparison test.

[3] = fraction unbound in brain, read-out: fu, brain
[4] = fraction unbound in plasma, read-out: fu, plasma

Sequence of human D1 receptor (P21728 whole entry): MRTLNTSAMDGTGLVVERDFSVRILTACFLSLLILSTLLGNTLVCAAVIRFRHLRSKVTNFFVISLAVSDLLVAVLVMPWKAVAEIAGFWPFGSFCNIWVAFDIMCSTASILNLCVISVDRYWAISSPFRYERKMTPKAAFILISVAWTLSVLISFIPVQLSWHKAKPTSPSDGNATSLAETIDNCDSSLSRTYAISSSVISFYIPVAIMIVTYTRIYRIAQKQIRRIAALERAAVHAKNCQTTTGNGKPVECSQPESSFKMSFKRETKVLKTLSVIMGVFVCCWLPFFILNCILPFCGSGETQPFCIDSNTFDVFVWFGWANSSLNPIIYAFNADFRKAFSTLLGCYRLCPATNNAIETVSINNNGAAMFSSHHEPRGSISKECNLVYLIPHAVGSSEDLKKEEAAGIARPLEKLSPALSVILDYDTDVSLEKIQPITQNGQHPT

## C[C@H]1c2cccc(-c3cn[nH]c3)c2C[C@H](CO)N1C(=O)Cc1c(Cl)cccc1Cl [Example 8, 2-(2,6-dichlorophenyl)-1-((1S,3R)-3-(hydroxymethyl)-1-methyl-5-(1H-pyrazol-4-yl)-3,4-dihydroisoquinolin-2(1H)-yl)ethan-1-one]
Human D1 receptor
  EC50: 13.4 nM
  Emax: 75.9%
[1]; [3]
  fraction unbound: 0.01
[1]; [4]
  fraction unbound: 0.031
[2]; 3.0 mg/kg PO
  Basal Locomotor Activity (Total Ambulations for 60 min), mean: 335
[2]; 10 mg/kg PO
  Basal Locomotor Activity (Total Ambulations for 60 min), mean: 753
[2]; 20 mg/kg PO
  Basal Locomotor Activity (Total Ambulations for 60 min), mean: 3629*
[2]; 30 mg/kg PO
  Basal Locomotor Activity (Total Ambulations for 60 min), mean: 3746**
[2]; 60 mg/kg PO
  Basal Locomotor Activity (Total Ambulations for 60 min), mean: 4080 ***
[2]
  Effect on basal movement / locomotor activation (in words): increase basal movement in a dose dependent manner

## C[C@H]1c2cccc(-c3cnn(C)c3)c2C[C@H](CO)N1C(=O)Cc1c(Cl)cccc1Cl [Example 1, 2-(2,6-dichlorophenyl)-1-((1S,3R)-3-(hydroxymethyl)-1-methyl-5-(1-methyl-1H-pyrazol-4-yl)-3,4-dihydroisoquinolin-2(1H)-yl)ethan-1-one]
Human D1 receptor
  EC50: 16.4 ± 3.18 nM
  Emax: 91.4%
[1]; [3]
  fraction unbound: 0.025
[1]; [4]
  fraction unbound: 0.027
[2]; 1.0 mg/kg PO
  Basal Locomotor Activity (Total Ambulations for 60 min), mean: 410
[2]; 3.0 mg/kg PO
  Basal Locomotor Activity (Total Ambulations for 60 min), mean: 490
[2]; 6.0 mg/kg PO
  Basal Locomotor Activity (Total Ambulations for 60 min), mean: 1517*
[2]; 10 mg/kg PO
  Basal Locomotor Activity (Total Ambulations for 60 min), mean: 2426***
[2]; 30 mg/kg PO
  Basal Locomotor Activity (Total Ambulations for 60 min), mean: 3568****
[2]
  Effect on basal movement / locomotor activation (in words): increase basal movement in a dose dependent manner; also recorded: significant in vivo efficacy when orally administered at 6, 10, and 30 mg/kg PO
